The values below come from patent US5565424A, “Superactive VIP antagonists” (Ramot - University Authority for Applied Research and …, priority 1994, dated 1996).

Assay [1] relates to cAMP (low affinity) VIP receptor on astroglia cells. Nature of the assay: Displacement of 125I-VIP from astroglia cells. The note with it: central nervous system, FIGS. 2 and 3. Background: Loss of bound radioactivity is the signal in a displacement assay; it reports binding, not function.
Another assay deals with NCI-H1299. The note with it: for NSCLC colony formation (colonies): NCI-H1299, 1 μM addition, control 29 ± 3.1.
Assay [2] relates to dissociated mouse spinal cord cultures (neurons). Nature of the assay: Neuronal survival in dissociated spinal cord cultures. The format is cell-based.
Assay [3] deals with VIP-stimulated cAMP formation in astrocytes. Nature of the assay: VIP-stimulated cAMP formation in cortical astrocyte cultures. It is filed as cell-based, rat. The note with it: 1 μM VIP, FIG. 2. The procedure:
FIG. 2. VIP-stimulated cAMP formation was inhibited in the presence of the family of VIP antagonists. Cortical astrocyte cultures were incubated for 10 min with 1 μm VIP and cAMP accumulation was determined by radioimmunoassay (Gozes, et al., J. Pharmacol. & Exp. Therap., 257:959 (1991)). Increasing concentrations of the antagonists were placed in the astrocyte cultures 5 minutes prior to the addition of VIP. Astrocytes were maintained in 35 mm tissue culture dishes with 0.3 mg protein per dish. Each value is the mean of 8-10 determinations from 4 experiments. […] The error bar is the SEM.
In view of the foregoing, astroglia cells were utilized to compare the effects the VIP antagonists of the present invention have on VIP-stimulated cAMP formation. For cAMP determinations, the general protocols involve either the measurement of adenylate cyclase activity or, the use of radioimmunoassays for cAMP which utilize a cAMP determination kit from NEN (New England Nuclear, Boston, Mass.)36 previously described by Gozes, et al. (J. Pharmacol. Exp. Therap., 257:959 (1991)). An HCl (0.05M) extract neutralizecl with 0.5M NaOH may be utilized for the tests.
Rat astrocytes were maintained in cell culture as described above. The accumulation of cAMP was measured by radio-immunoassay (NEN kit, New England Nuclear) from cold trichloro acetic acid extracts (Evans et al., supra, 1984). […]
On the technique in general: Cyclic AMP is a second messenger, typically raised through Gs and lowered through Gi signalling.

In assay [4] the test system is non-small cell lung cancer (NSCLC) cell lines. Nature of the assay: NSCLC colony formation / cell growth, statements across cell lines.
A further assay has as its system NCI-H727. The note with it: for NSCLC colony formation (colonies): NCI-H727, 1 μM addition, control 35.2 ± 2.3.
The test system of assay [5] is Sprague-Dawley rat pups, locomotive activity rhythm. Nature of the assay: Circadian motor activity rhythms after chronic injection. The format is in vivo. The note with it: 5 μg/day subcutaneous, 28 days, newborn rat pups. The method, then: FIGS. 4(A-J). VIP antagonism disturbed the biological clock via a cAMP-mediated mechanism. Newborn rat pups (Sprague-Dawley, locally bread, Yoxheam, Israel) were chronically injected with VIP analogues (5 μg of each analogue/50 μl/day, subcutaneous), for 28 consecutive days. The vehicle of injection was either 0.01M acetic acid or 15% dimethylsulfoxide (for the lipophilic peptides). On day 21, the animals were placed each one in a separate cage and their locomotive activity was continuously measured. The pattern of locomotive activity was measured using an animal monitoring system with an infrared detector for 7 days (A, C, E, G, I). The spectral periods of rhythm in the activity data was detected by a special statistical method because of the short computer sampling period. […]
Animals were each placed in a separate cage and motor activity was continuously recorded for 6-9 days, using an animal monitoring system with an infrared detector. Spectral analysis of motor activity rhythms is then determined by the fitting of different cosine curves to the activity data (see, Mattes, et al., Chronobiology Int'l, 8:460 (1991)).

A further assay deals with NCI-H226. The note with it: for NSCLC colony formation (colonies): NCI-H226, 1 μM addition, control 43.1 ± 5.7.
Assay [6] relates to c-fos mRNA in NCIH810 cells. Nature of the assay: c-fos mRNA assay. It is filed as cell-based. The method, then: In addition, the ability of VIP and the S-hybrid VIP antagonist to stimulate c-fos mRNA was examined; c-fos mRNA is a marker for cancer cell proliferation. […] This is true regardless of whether the VIP antagonist is co-administered with VIP or added by itself (See, Table IV, infra).
^a NCIH810 cells were treated with the peptide and the cfos mRNA
determined after 1 hour.
For the c-fos experiments, SCLC cells were cultured with SIT medium containing 0.5% fetal bovine serum. After 4 hours, the cells were treated with stimuli such as 10 nM BN for 60 min. Total RNA was isolated using the guanidinium isothiocyanate (GIT) method. Ten μg of denatured RNA was separated in a 0.66M formaldehyde 1% agarose gel as previously described. The gel was treated with ethidium bromide tp assess RNA integrity. The RNA was blotted onto a nitrocellulose membrane overnight and the membrane hybridized with a c-fos probe labelled with ^32 P-dCTP using a Bethesda Research Laboratories random priming kit. The membrane was exposed to Kodax XAR-2 film at […] for 1 day and the autoradiogram developed. The autoradiogram were analyzed using a Molecular Dynamics densitometer.

Assay [7] relates to VIP receptors on neuroblastoma (NMB) cells. Nature of the assay: VIP binding and displacement on intact neuroblastoma (NMB) cells. Further details: species or system human. The procedure: Alternatively, the VIP was iodinated according to the procedure described by Werner, et al. (Biochem. Biophys. Res. Commun., 133:228-232 (1985)). […] Experiments were repeated at least three times, each containing triplicates, error bars represent the standard error. Cells were grown for 24 hours (circles) and 48 hours (triangles). […] The binding parameters were determined by ACCUFIT program, Lundon-2 competition analysis (LUNDON software Inc., Chargin Falls, Ohio, U.S.A.). […] The calculated Bmax was 6×10^-14 moles/mg and 1.5×10^-14 moles/mg for cells grown for 24 hours as compared to cells grown for 48 hours, respectively.

Assay [8] concerns neuroblastoma (NMB) cells. The experiment in a line: Neuroblastoma (NMB) cell division by cell counts. The format is cell-based, human. The method, then:
FIG. 5. […] Neuroblastoma (NMB) cells have been grown in culture using RPMI-1640 medium supplemented with 10% fetal calf serum and gentamicin (100 μl of 40 mg/ml stock solution per 100 mL medium) in a humidified atmosphere of 5% CO2, 95% air. Cells were harvested with Puck's saline containing 0.25% trypsin and 0.02M EDTA every four days, centrifuged and seeded in 60 mm diameter tissue culture dishes (CORNING) at a density of 0.6-0.7×10^6 cells per dish.
For mitogenic assays, human NM cells were seeded in 35 mm diameter tissue culture dishes (CORNING) at a density of 0.2×10^6 cells per dish in RPMI-1640 medium plus 10% fetal calf serum. […] Cell counts were performed with a hemocytometer, using trypan blue staining for viability, on the second day (24 hours) after the VIP treatment. Results shown on the graph are cell/dish×1000. Error bars represent the standard error. Three-six replicates were counted for each data point and experiments were repeated three independent times.

Assay [9] deals with neuroblastoma (NMB) cells. The experiment in a line: Thymidine incorporation into neuroblastoma (NMB) cells. It is filed as cell-based, human. The note with it: 24 hours incubation, one day after seeding; read-out: EC50, stimulation of thymidine incorporation into NMB cells. In general terms: Incorporation of labelled thymidine or its analogues reports DNA synthesis.

pEC50: −log10 of the molar value. Non-standard residues stand in square brackets, D forms with d. Residues, ends and D or L forms follow the SMILES beside them. Nle = CCCC[C@H](N)C(=O)O

As for `CCCC[C@H](NC(=O)[C@H](CCC(N)=O)NC(=O)[C@H](CCCCN)NC(=O)[C@H](CCCNC(=N)N)NC(=O)[C@H](CC(C)C)NC(=O)[C@H](CCCNC(=N)N)NC(=O)[C@@H](NC(=O)[C@H](Cc1ccc(O)cc1)NC(=O)[C@H](CC(N)=O)NC(=O)[C@H](CC(=O)O)NC(=O)[C@@H](NC(=O)[C@H](Cc1ccc(O)cc1)NC(=O)[C@@H]1CCCN1C(=O)[C@H](CCCNC(=N)N)NC(=O)[C@H](CCCNC(=N)N)NC(=O)[C@@H]1CCCN1C(=O)[C@@H](N)CCCCN)[C@@H](C)O)[C@@H](C)O)C(=O)N[C@@H](C)C(=O)N[C@H](C(=O)N[C@@H](CCCCN)C(=O)N[C@@H](CCCCN)C(=O)N[C@@H](Cc1ccc(O)cc1)C(=O)N[C@@H](CC(C)C)C(=O)N[C@@H](CC(N)=O)C(=O)N[C@@H](CO)C(=O)N[C@H](C(=O)N[C@@H](CC(C)C)C(=O)N[C@@H](CC(N)=O)C(N)=O)[C@@H](C)CC)C(C)C` [NL-hybrid VIP antagonist] (H-KPRRPYTDNYTRLRKQ[Nle]AVKKYLNSILN-NH2), the “affinity for the cAMP (low affinity) VIP receptor (in words)” value in [1] is “has an affinity for both”. In the assay with NCI-H1299, the “inhibition of cell growth” value is reported as 100% and the “NSCLC colony formation (colonies)” value is on record as 0. Also, in assay [2], the “fold more potent than the hybrid VIP antagonist at inducing neuronal cell death” value was 10 fold. Also, the “affinity for the VIP-neuronal survival associated receptor (in words)” value in assay [2] (central nervous system, FIG. 1) is listed as “has an affinity for both”. The “concentration of maximal effect on neuronal cell death” value in assay [2] (spinal cord cultures, FIG. 1) is 10^-10 M. Further, the “inhibition of VIP-induced cAMP formation (in words)” value in [3] is listed as “effectively inhibits VIP-induced cAMP formation”. Besides, in assay [4] (two out of three NSCLC cell lines), the “potency relative to the hybrid antagonist in inhibiting tumor cell growth” value is “ten-fold more potent”. In the assay with NCI-H727, the “inhibition of cell growth” value amounted to 88% and the “NSCLC colony formation (colonies)” value is given as 4.2 ± 3.1. In [5], the “effect on 24 hours periodicity of activity rhythm” value is reported as “abolished this 24 hours periodicity” and the “overall activity of the animals” value is given as “overall increase in the activity”. Further, in the assay with NCI-H226, the “inhibition of cell growth” value was 92% and the “NSCLC colony formation (colonies)” value is on record as 3.5 ± 2.5.
`CC[C@H](C)[C@H](NC(=O)[C@H](CO)NC(=O)[C@H](CC(N)=O)NC(=O)[C@H](CC(C)C)NC(=O)[C@H](Cc1ccc(O)cc1)NC(=O)[C@H](CCCCN)NC(=O)[C@H](CCCCN)NC(=O)[C@@H](NC(=O)[C@H](C)NC(=O)[C@H](CCSC)NC(=O)[C@H](CCC(N)=O)NC(=O)[C@H](CCCCN)NC(=O)[C@H](CCCNC(=N)N)NC(=O)[C@H](CC(C)C)NC(=O)[C@H](CCCNC(=N)N)NC(=O)[C@@H](NC(=O)[C@H](Cc1ccc(O)cc1)NC(=O)[C@H](CC(N)=O)NC(=O)[C@H](CC(=O)O)NC(=O)[C@@H](NC(=O)[C@H](Cc1ccccc1)NC(=O)[C@@H](NC(=O)[C@H](C)NC(=O)[C@H](CC(=O)O)NC(=O)[C@H](CO)NC(=O)[C@@H](N)Cc1c[nH]cn1)C(C)C)[C@@H](C)O)[C@@H](C)O)C(C)C)C(=O)N[C@@H](CC(C)C)C(=O)N[C@@H](CC(N)=O)C(N)=O` [VIP, Vasoactive intestinal polypeptide]: the “NSCLC colony formation (colonies)” value in the assay with NCI-H1299 is given as 55.8 ± 19.8; in the assay with NCI-H727, 115 ± 22.7; with NCI-H226, 87.4 ± 4.8. Besides, the “c-fos mRNA” value in assay [6] (10 nM, NCIH810 cells, after 1 hour, NONE = 1.0) was 5.6. Also, the “effect on c-fos mRNA (in words)” value in [6] (antagonist co-administered with VIP or added by itself) is recorded as “stimulates c-los mRNA”. In [4] (index of cell growth), the “stimulation of NSCLC colony formation in agar” value is listed as 2-3 fold. Further, in assay [7], the “fold higher affinity in younger cells (24 hrs) compared with older cells (48 hrs)” value is on record as “about 10 fold”. Also, the pEC50 was 6.30 in [8] (24 hour VIP treatment, added one day after seeding, read-out: EC50, stimulation of NMB cell division by cell counts) and 6.30 in assay [9]. The “mitosis when added 48 hours after plating” value in [8] (additional 24 hours incubation) is “did not stimulate mitosis”. In [8] (cell counts and thymidine incorporation, decreased thereafter), the “concentration at peak of mitogenic activity” value stood at 1 µM.
